# Read-outs that look alike come from different tables or passages of the source.
# Target: T1, CFTR (Homo sapiens, UniProt P13569, DEL508-508)
# T1 construct: endogenous in cells; host or cells: primary human bronchial epithelial cells from CF subjects (F508del/MF-HBE), differentiated at air-liquid interface
# Test: HBE assay: Ussing chamber assay of CFTR-mediated short-circuit currents
# Assay type: cell-based
# Settings: for activation at 10 µM: read-out: HBE Activity at 10 μM (%); for EC50: read-out: HBE EC50; for Emax: read-out: HBE Max Activity (%)
# In short: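 CFTR-mediated Isc (μA/cm²) equals the peak response to apical 20 μM forskolin minus the residual after a 20 μM each BPO/GlyH-101/CFTR inhibitor 172 cocktail, recorded in Ussing chambers at Vhold 0 mV, 37 °C, pH 7.4, with 30 μM apical amiloride. Cells were F508del/MF HBE cultures preincubated 18-24 h with corrector (concentration range or 10 μM) plus 1 μM ivacaftor in 20% human serum.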
# T1 sequence (P13569 with tags, fused parts or gaps DEL508-508): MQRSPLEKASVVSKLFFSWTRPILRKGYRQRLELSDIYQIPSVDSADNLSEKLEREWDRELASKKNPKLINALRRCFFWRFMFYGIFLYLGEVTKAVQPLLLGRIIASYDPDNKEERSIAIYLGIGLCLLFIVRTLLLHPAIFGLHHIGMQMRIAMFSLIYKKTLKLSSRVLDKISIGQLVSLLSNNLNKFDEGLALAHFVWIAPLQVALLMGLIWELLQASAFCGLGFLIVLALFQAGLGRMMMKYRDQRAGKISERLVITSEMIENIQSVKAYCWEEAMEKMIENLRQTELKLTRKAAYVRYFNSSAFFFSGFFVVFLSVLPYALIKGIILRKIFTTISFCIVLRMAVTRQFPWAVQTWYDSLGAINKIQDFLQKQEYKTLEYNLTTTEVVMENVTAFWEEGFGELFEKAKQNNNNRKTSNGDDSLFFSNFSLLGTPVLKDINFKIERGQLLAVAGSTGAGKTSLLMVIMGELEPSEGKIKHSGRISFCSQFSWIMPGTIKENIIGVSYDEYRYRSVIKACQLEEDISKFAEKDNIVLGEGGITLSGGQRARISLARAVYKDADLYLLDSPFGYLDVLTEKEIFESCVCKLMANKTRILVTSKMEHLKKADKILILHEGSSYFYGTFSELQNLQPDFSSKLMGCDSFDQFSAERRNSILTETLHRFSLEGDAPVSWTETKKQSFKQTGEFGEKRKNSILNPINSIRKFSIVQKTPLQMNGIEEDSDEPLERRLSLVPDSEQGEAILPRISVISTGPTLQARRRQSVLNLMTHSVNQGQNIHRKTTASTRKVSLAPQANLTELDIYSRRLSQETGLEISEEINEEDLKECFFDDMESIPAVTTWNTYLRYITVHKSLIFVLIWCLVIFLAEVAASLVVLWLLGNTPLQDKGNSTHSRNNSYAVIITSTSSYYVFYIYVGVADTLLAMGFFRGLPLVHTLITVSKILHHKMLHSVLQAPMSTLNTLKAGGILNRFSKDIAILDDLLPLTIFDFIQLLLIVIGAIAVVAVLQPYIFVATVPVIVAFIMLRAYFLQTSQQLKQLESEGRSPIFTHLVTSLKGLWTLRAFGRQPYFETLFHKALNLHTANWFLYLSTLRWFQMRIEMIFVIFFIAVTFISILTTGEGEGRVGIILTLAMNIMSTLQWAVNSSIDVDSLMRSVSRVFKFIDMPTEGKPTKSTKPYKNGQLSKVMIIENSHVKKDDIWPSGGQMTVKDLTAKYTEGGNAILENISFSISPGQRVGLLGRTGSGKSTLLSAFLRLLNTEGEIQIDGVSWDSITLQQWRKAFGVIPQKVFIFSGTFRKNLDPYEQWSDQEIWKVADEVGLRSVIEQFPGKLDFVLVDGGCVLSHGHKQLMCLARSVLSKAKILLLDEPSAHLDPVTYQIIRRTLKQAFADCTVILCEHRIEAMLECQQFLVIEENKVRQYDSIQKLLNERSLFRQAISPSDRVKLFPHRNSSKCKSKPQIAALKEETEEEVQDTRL
smiles,measurement,setting,value
Cc1cccc(C)c1-c1cc2nc(n1)NS(=O)(=O)c1cccc(c1)C(=O)N(CC(=O)N(C)CCN(C)C)[C@H](CC(C)(C)C)CO2 [Compound 224],activation at 10 µM,Table 12,> 600%
Cc1cccc(C)c1-c1cc2nc(n1)NS(=O)(=O)c1cccc(c1)C(=O)N(CC(=O)N(C)CC1CCCCO1)[C@H](CC(C)(C)C)CO2 (stereo partly shown) [Compound 225],activation at 10 µM,Table 13,> 600%
Cc1cccc(C)c1-c1cc2nc(n1)NS(=O)(=O)c1cccc(c1)C(=O)N(CC(=O)N(C)CCN1CCOCC1)[C@H](CC(C)(C)C)CO2 [Compound 226],activation at 10 µM,Table 13,> 600%
Cc1cccc(C)c1-c1cc2nc(n1)NS(=O)(=O)c1cccc(c1)C(=O)N(CC(=O)NCC1CCCC1)[C@H](CC(C)(C)C)CO2 [Compound 228],activation at 10 µM,Table 12,30 to 60%
Cc1cccc(C)c1-c1cc2nc(n1)NS(=O)(=O)c1cccc(c1)C(=O)N(CC(=O)N(C)CC1CCCC1)[C@H](CC(C)(C)C)CO2 [Compound 229],activation at 10 µM,Table 12,> 600%
Cc1cccc(C)c1-c1cc2nc(n1)NS(=O)(=O)c1cccc(c1)C(=O)N(CC(=O)NCC1CCCCC1)[C@H](CC(C)(C)C)CO2 [Compound 230],EC50,Table 12,< 1 µM
same,Emax,Table 12,> 60%
Cc1cccc(C)c1-c1cc2nc(n1)NS(=O)(=O)c1cccc(c1)C(=O)N(CC(=O)N(C)CC1CCCCC1)[C@H](CC(C)(C)C)CO2 [Compound 231],EC50,Table 12,< 1 µM
same,Emax,Table 12,> 60%
Cc1cccc(C)c1-c1cc2nc(n1)NS(=O)(=O)c1cccc(c1)C(=O)N(Cc1cn(C(C)C)cn1)[C@H](CC(C)(C)C)CO2 [Compound 232],activation at 10 µM,Table 12,> 600%
Cc1cccc(C)c1-c1cc2nc(n1)NS(=O)(=O)c1cccc(c1)C(=O)N(Cc1ccc(C3CCCCC3)nn1)[C@H](CC(C)(C)C)CO2 [Compound 233],activation at 10 µM,Table 12,> 600%
Cc1cccc(C)c1-c1cc2nc(n1)NS(=O)(=O)c1cccc(c1)C(=O)N(Cc1ccc(OC(C)C)nn1)[C@H](CC(C)(C)C)CO2 [Compound 234],EC50,Table 13,< 1 µM
same,Emax,Table 13,> 60%
Cc1cccc(C)c1-c1cc2nc(n1)NS(=O)(=O)c1cccc(c1)C(=O)N(Cc1cccc(N(CC3CC3)C(C)C)n1)[C@H](CC(C)(C)C)CO2 [Compound 235],EC50,Table 13,< 1 µM
same,Emax,Table 13,> 60%
Cc1cccc(C)c1-c1cc2nc(n1)NS(=O)(=O)c1cccc(c1)C(=O)N(Cc1cccc(N(CCOC(C)C)C(C)C)n1)[C@H](CC(C)(C)C)CO2 [Compound 236],EC50,Table 13,1 to 3 µM
same,Emax,Table 13,> 60%
Cc1cccc(C)c1-c1cc2nc(n1)NS(=O)(=O)c1cccc(c1)C(=O)N(Cc1ccc(C3=CCCCC3)nn1)[C@H](CC(C)(C)C)CO2 [Compound 237],activation at 10 µM,Table 12,> 600%
Cc1cccc(C)c1-c1cc2nc(n1)NS(=O)(=O)c1cccc(c1)C(=O)N(Cc1ccc(N3CCC(C)(C)C3)nn1)[C@H](CC(C)(C)C)CO2 [Compound 238],EC50,Table 12,< 1 µM
same,Emax,Table 12,30 to 60%
Cc1cccc(C)c1-c1cc2nc(n1)NS(=O)(=O)c1cccc(c1)C(=O)N(Cc1ncc(OC(C)C)cn1)[C@H](CC(C)C)CO2 [Compound 239],EC50,Table 12,1 to 3 µM
same,Emax,Table 12,> 60%
Cc1cccc(C)c1-c1cc2nc(n1)NS(=O)(=O)c1cccc(c1)C(=O)N(Cc1cnc(C3CCOCC3)cn1)[C@H](CC(C)C)CO2 [Compound 240],EC50,Table 12,< 1 µM
same,Emax,Table 12,> 60%
Cc1cccc(C(C)C)c1-c1cc2nc(n1)NS(=O)(=O)c1cccc(c1)C(=O)N(Cc1ncc(OC(C)C)cn1)[C@H](CC(C)C)CO2 [Compound 241],activation at 10 µM,Table 12,> 600%
Cc1cccc(C(C)C)c1-c1cc2nc(n1)NS(=O)(=O)c1cccc(c1)C(=O)N(Cc1cnc(C3CCOCC3)cn1)[C@H](CC(C)C)CO2 [Compound 242],activation at 10 µM,Table 12,> 600%
Cc1cccc(C)c1-c1cc2nc(n1)NS(=O)(=O)c1cccc(c1)C(=O)N(Cc1cncc(N(C)C(C(=O)O)C(C)C)n1)[C@H](CC(C)(C)C)CO2 (stereo partly shown) [Compound 243],activation at 10 µM,Table 12,> 600%
COc1cc(Br)cnc1CN1C(=O)c2cccc(c2)S(=O)(=O)Nc2nc(cc(-c3c(C)cccc3C)n2)OC[C@H]1CC(C)(C)C [Compound 244],activation at 10 µM,Table 13,> 600%
Cc1cccc(C)c1-c1cc2nc(n1)NS(=O)(=O)c1cccc(c1)C(=O)N(Cc1ccc(C(=O)N3CCOCC3)cn1)[C@H](CC(C)(C)C)CO2 [Compound 245],activation at 10 µM,Table 13,> 600%
Cc1cccc(C)c1-c1cc2nc(n1)NS(=O)(=O)c1cccc(c1)C(=O)N(Cc1ccc(C(=O)N3CCC(C)(C)C3)cn1)[C@H](CC(C)(C)C)CO2 [Compound 246],activation at 10 µM,Table 13,> 600%
Cc1cccc(C)c1-c1cc2nc(n1)NS(=O)(=O)c1cccc(c1)C(=O)N(Cc1ccc(C(=O)O)cn1)[C@H](CC(C)(C)C)CO2 [Compound 247],activation at 10 µM,Table 13,30 to 60%
COC(=O)c1ccc(CN2C(=O)c3cccc(c3)S(=O)(=O)Nc3nc(cc(-c4c(C)cccc4C)n3)OC[C@H]2CC(C)(C)C)nc1 [Compound 248],activation at 10 µM,Table 13,> 600%
Cc1cccc(C)c1-c1cc2nc(n1)NS(=O)(=O)c1cccc(c1)C(=O)N(Cc1ccc(N3CCC(C(=O)N(C)C)CC3)cn1)[C@H](CC(C)(C)C)CO2 [Compound 249],activation at 10 µM,Table 13,> 600%
Cc1cccc(C)c1-c1cc2nc(n1)NS(=O)(=O)c1cccc(c1)C(=O)N(Cc1ccc(C#CC(C)(C)CO)cn1)[C@H](CC(C)(C)C)CO2 [Compound 250],EC50,Table 12,< 1 µM
same,Emax,Table 12,> 60%
Cc1cccc(C)c1-c1cc2nc(n1)NS(=O)(=O)c1cccc(c1)C(=O)N(Cc1ccc(N3CCC(C(=O)O)CC3)cn1)[C@H](CC(C)(C)C)CO2 [Compound 251],activation at 10 µM,Table 13,30 to 60%
Cc1cccc(C)c1-c1cc2nc(n1)NS(=O)(=O)c1cccc(c1)C(=O)N(Cc1ccc(C3CC3)cn1)[C@H](CC(C)(C)C)CO2 [Compound 252],EC50,Table 13,< 1 µM
same,Emax,Table 13,> 60%
CC(=O)N1CCN(c2cccc(CN3C(=O)c4cccc(c4)S(=O)(=O)Nc4nc(cc(-c5c(C)cccc5C)n4)OC[C@H]3CC(C)(C)C)n2)CC1 [Compound 253],activation at 10 µM,Table 13,> 600%
Cc1cccc(C)c1-c1cc2nc(n1)NS(=O)(=O)c1cccc(c1)C(=O)N(Cc1ccc(N3CCC(C(C)(C)O)CC3)cn1)[C@H](CC(C)(C)C)CO2 [Compound 254],activation at 10 µM,Table 13,> 600%
COC(=O)C1CCN(c2ccc(CN3C(=O)c4cccc(c4)S(=O)(=O)Nc4nc(cc(-c5c(C)cccc5C)n4)OC[C@H]3CC(C)(C)C)nc2)CC1 [Compound 255],activation at 10 µM,Table 13,> 600%
Cc1cccc(C)c1-c1cc2nc(n1)NS(=O)(=O)c1cccc(c1)C(=O)N(C(=O)c1ccccc1)[C@H](CC(C)(C)C)CO2 [Compound 256],activation at 10 µM,Table 13,> 600%
Cc1cccc(C)c1-c1cc2nc(n1)NS(=O)(=O)c1cccc(c1)C(=O)N(Cc1ccc(N3CCCC3=O)cn1)[C@H](CC(C)(C)C)CO2 [Compound 257],activation at 10 µM,Table 13,> 600%
Cc1cccc(C)c1-c1cc2nc(n1)NS(=O)(=O)c1cccc(c1)C(=O)N(Cc1ccc(N3CCC(C(C)(C)C)CC3)cn1)[C@H](CC(C)(C)C)CO2 [Compound 258],activation at 10 µM,Table 13,> 600%
CCC(=O)CN1C(=O)c2cccc(c2)S(=O)(=O)Nc2nc(cc(-c3c(C)cccc3C)n2)OC[C@H]1CC(C)(C)C [Compound 259],activation at 10 µM,Table 13,> 600%
CCC(C)C(CO)N(C)c1cncc(CN2C(=O)c3cccc(c3)S(=O)(=O)Nc3nc(cc(-c4c(C)cccc4C)n3)OC[C@H]2CC(C)(C)C)n1 (stereo partly shown) [Compound 260],EC50,Table 12,< 1 µM
same,Emax,Table 12,> 60%
Cc1cccc(C)c1-c1cc2nc(n1)NS(=O)(=O)c1cccc(c1)C(=O)N(Cc1ccc(C3CCOC3)cn1)[C@H](CC(C)(C)C)CO2 (stereo partly shown) [Compound 261],EC50,Table 12,< 1 µM
same,Emax,Table 12,> 60%
